Assay results: patent US7879795B2, “Enhancement of tigecycline potency using efflux pump inhibitors” (Mpex Pharmaceuticals, Inc., priority 2004, dated 2011)

Legend:
[1] = Stability in human kidney tissue preparations; format: in vitro ADME; settings: in words
Source text: The pattern of in vitro stability of compound 3 (stable in serum but unstable in tissues) observed in rodents was also reproduced using human kidney tissues or serum. FIG. 7 compares the in vitro stability of compounds 1 and 3 in human kidney tissue preparations.
FIG. 8 depicts formation of the metabolite, compound 67, in human kidney tissue. Concomitant with the disappearance of compound 3, generation of the expected metabolite of the presumed intralysosomal degradation, compound 67, was detected using human kidney.

[2] = system: strain PAM1723 of P. aeruginosa; format: in vitro ADME; settings: in words
Procedure: Stability of compounds was also evaluated using a bioassay. The test compound at 320 μg/ml was treated with rabbit kidney supernatant for 0, 0.5, 1 and 2 hours.

[3] = Tissue levels after 5 day repeated dosing in rat; format: in vivo; settings: 20 mg/kg twice daily for 5 days, 6 hours after last dose
Procedure: The decreased tissue accumulation of compound 3 vis-a-vis 1 was confirmed in a multi-dose experiment. Rats received 20 mg/kg of either compound twice daily for 5 days. Animal were sacrificed 6 hours after the last dose and levels of compounds in kidneys, liver and lung were determined. FIG. 14 depicts the measured tissue levels. Approximately 100-fold, 60-fold, and 10-fold less compound 3 accumulated in kidney, liver and lung respectively, as compared to compound 1.

Klebsiella pneumonia 79 = assay: Antibiotic MIC with fixed concentration of compound 21, Klebsiella pneumonia 79; format: cell-based
Procedure: (§1) To further characterize the clinical potential of tigecycline/EPI combinations, the microbiological activity of tigecycline in combination with compound 21 was investigated using clinical isolates of P. aeruginosa and other gram-negative bacteria. In several experiments, described below, the impact of a fixed concentration of compound 21 (2.5 μg/ml) on susceptibility to tigecycline was determined.
The impact of compound 21 on the activity of tigecycline against representative members of Enterobacteriacaea was also tested.

Enterobacter cloacae 25 = assay: Antibiotic MIC with fixed concentration of compound 21, Enterobacter cloacae 25; format: cell-based
[4] = system: 110 clinical isolates of P. aeruginosa; assay: Tigecycline susceptibility of P. aeruginosa clinical isolates with fixed concentration of compound 21; format: cell-based
Procedure: as §1
Results from an experiment using 110 clinical isolates of P. aeruginosa are presented in FIG. 1, as the distribution of tigecycline MICs with or without the EPI potentiator.

[5] = Solubility in water (stock solutions); settings: stock solutions 10 mg/ml
[6] = system: PAM 1032, nalB, MexAB-OprM over-expressed; assay: microbe, parasite or virus in culture; format: cell-based, P. aeruginosa; design: Tigecycline MIC in the presence of Compound 21: unit not given here; settings: PAM 1032
Procedure: The ability of compound 21 to increase susceptibility to tigecycline was also assessed. The tigecycline potentiating activity of compound 21 was assessed by the checkerboard assay (Antimicrobial Combinations, Antibiotics in Laboratory Medicine, ed. Victor Lorian, M.D., Fourth edition, 1996, pp 333-338, which is incorporated herein by reference in its entirety) using a broth micro-dilution method performed as recommended by the CSLI (Clinical and Laboratory Standards Institute, formerly NCCLS) guidelines (National Committee for Clinical Laboratory Standards 2003. Methods for Dilution Antimicrobial Susceptibility Tests for Bacteria That Grow Aerobically—Sixth Edition; Approved Standard. NCCLS Document M7-A6, Vol 20 No. 2). In this assay, multiple dilutions of the two drugs, compound 21 and tigecycline, were tested alone and in combination, at concentrations equal to, above and below their respective minimal inhibitory concentrations (MICs). […] The stock solution was further diluted in Mueller Hinton Broth (MHB). Stock solutions were stored at −80° C.
The checkerboard assay was performed in microtiter plates. Tigecycline was diluted in the x axis, each column containing a single concentration of tigecycline. Compound 21 was diluted in the y axis, each row containing an equal concentration of the EPI. […] The assay was performed in MHB with a final bacterial inoculum of 5×10^5 CFU/ml (from an early-log phase culture). The microtiter plates were incubated for 20 hours at 35° C. and then read using a microtiter plate reader (Molecular Devices) at 650 nm, as well as by visual observation using a microtiter plate-reading mirror.
P. aeruginosa strain PAM 1032 was grown in Mueller-Hinton Broth (MHB) at 35° C. under constant aeration. After 20 hours, the inoculum was sub-cultured into fresh MHB and allowed to regrow at 35° C., under constant aeration, for 4 hours. The inoculum was adjusted to ca. 4×10^7 CFU/ml by correlation of absorbance at 600 nm with predetermined plate counts. The inoculum was then diluted 2-fold in 14% hog-gastric mucin (Sigma, St. Louis, Mo.) for a final inoculum concentration of 2×10^7 CFU/ml. […] At 0 and 2 hours following infection, tigecycline was administered by the subcutaneous route and compound 21 was administered by the intraperitoneal route.

[7] = system: Klebsiella pneumonia, Proteus mirabilis, Morganella morganii, P. aeruginosa strains; assay: Tigecycline susceptibility of various bacterial strains in combination with compound 21 (Example 85); format: cell-based; settings: Example 85, written in present tense
Procedure: Standard CLSI methods for antimicrobial susceptibility testing, as outlined in National Committee for Clinical Laboratory Standards 2003, Methods for Dilution Antimicrobial Susceptibility Tests for Bacteria That Grow Aerobically—-6th ed., Approved Standard, NCCLS Document M7-A6, Vol 20 No. 2., are used to assess the activity of tigecycline in combination with compound 21. The following strains are tested: • Klebsiella pneumonia: G340, G595, G815, GC7335, GC7736, GC7737, tigecycline resistant mutants derived from G595 and G815 • Proteus mirabilis: G151, GC 7020, GC 6899, GC 6900, GC 7018, GC 7019 • Morganella morganii: G858, G1492, GC7676, GC7677, GC7743, GC7744 • P. aeruginosa: K767, K1523, K1525, XY1, XY3, K153, BXY1, BXY4, K1119, M1, M9, K1455.
Clinical isolates enriched with strains having a decreased susceptibility to tigecycline are also tested.

[8] = azithromycin MIC with compound 21
[9] = levofloxacin MIC with compound 21 at […]
[10] = tigecycline MIC with compound 21 at […]
[11] = tigecycline with compound 21 at fixed […], 110 clinical isolates

Structure (SMILES): NCCC[C@H](N)C(=O)N[C@H](CCc1ccccc1)C(=O)Nc1cnc2ccccc2c1 [Compound 3, 2-(S),5-Diamino-pentanoic acid [3-phenyl-1-(R)-(quinolin-3-ylcarbamoyl)-propyl]-amide]
- degradation in homogenates prepared from frozen cadaverous human kidney [1]: Time-dependent degradation
- pH dependence of degradation in human kidney homogenates [1]: stronger at lower pH
- change of EPI activity after treatment with supernatant of rabbit kidney homogenate [2]: time-dependent reduction of the EPI activity
- less compound 3 accumulated as compared to compound 1 ([3]; rat kidney): Approximately 100 fold
- less compound 3 accumulated as compared to compound 1 ([3]; rat liver): ~60 fold
- less compound 3 accumulated as compared to compound 1 ([3]; rat lung): ~10 fold

Structure (SMILES): NCCC[C@H](N)C(=O)N[C@H](Cc1ccc(C(F)(F)F)cc1)C(=O)Nc1cnc2ccccc2c1 [Compound 21, 2-(S),5-Diamino-pentanoic acid [1-(R)-(quinolin-3-ylcarbamoyl)-2-(4-trifluoromethyl-phenyl)-ethyl]amide]
- Azi + EPI (MIC) (Klebsiella pneumonia 79; [8]): 0.25
- Levo + EPI at […] (MIC) (Klebsiella pneumonia 79; [9]): 4
- Tig + EPI at […] (MIC) (Klebsiella pneumonia 79; [10]): 0.25
- Azi + EPI (MIC) (Enterobacter cloacae 25; [8]): ≦0.125
- Levo + EPI at […] (MIC) (Enterobacter cloacae 25; [9]): 0.5
- Tig + EPI at […] (MIC) (Enterobacter cloacae 25; [10]): 0.5
- reduction of tigecycline MIC50 and MIC90 of the population ([4]; compound 21 at […]): 8 fold
- strains that responded to compound 21 ([4]; individual strains tested): 98%
- MIC50, Tigecycline + EPI [4, 11]: 0.25 µg/mL
- MIC90, Tigecycline + EPI [4, 11]: 1 µg/mL
- solubility in water [5]: readily soluble in water
- Tigecycline MIC in the presence of Compound 21 ([6]; Compound 21 0.625 μg/ml): 4
- Tigecycline MIC in the presence of Compound 21 ([6]; Compound 21 1.25 μg/ml): 2
- Tigecycline MIC in the presence of Compound 21 ([6]; Compound 21 5 μg/ml): 0.5
- Tigecycline MIC in the presence of Compound 21 ([6]; Compound 21 10 μg/ml): 0.5
- Tigecycline MIC in the presence of Compound 21 ([6]; Compound 21 20 μg/ml): 0.5
- Tigecycline MIC in the presence of Compound 21 ([6]; Compound 21 40 μg/ml): 0.5
- Tigecycline MIC in the presence of Compound 21 ([6]; Compound 21 […]): 0.5
- effect on development of resistance to tigecycline [7]: reduces the development of resistance
- effect on resistance to tigecycline in bacterial strains [7]: decreases resistance to tigecycline
- effect on susceptibility of the strains to tigecycline [7]: increases the susceptibility of the strains to tigecycline
